For 16 compounds, T/C results are on record in PubChem BioAssay AID248 (DTP/NCI, 2004).

Several values for one entry are separate records, joined by “and”; a condition that tells them apart may be missing. Equal entries are not always repeated. Toxic doses and inconclusive results are not listed.

For this experiment, the system named is L1210 leukemia ip in BDF1 mice, survival T/C. Description: NCI In Vivo Anticancer Drug Screen. Data for tumor model L1210 Leukemia (intraperitoneal) in B6D2F1 (BDF1) mice. Particulars: endpoint: mean survival time, higher = longer survival. The procedure, abridged: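 Mice bearing the transplanted tumor received compound or vehicle. Survival of the treated group was divided by that of the vehicle-treated control group to give the ratio.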

Setting [1] is: dose: 100.0 mg/kg/injection, schedule: Q04DX003 (ip), vehicle: saline with Tween-80.
The mark [2] stands for this setting: dose: 100.0 mg/kg/injection, schedule: Q01DX009 (ip), vehicle: Klucel (hydroxypropylcellulose) (HPC).
Setting [3] is: dose: 100.0 mg/kg/injection, schedule: Q04DX003 (ip), vehicle: Klucel (hydroxypropylcellulose) (HPC).
The mark [4] stands for this setting: dose: 200.0 mg/kg/injection, schedule: Q01DX009 (ip), vehicle: Klucel (hydroxypropylcellulose) (HPC).
[5] abbreviates: dose: 200.0 mg/kg/injection, schedule: Q04DX003 (ip), vehicle: Klucel (hydroxypropylcellulose) (HPC).
Setting [6] is: dose: 400.0 mg/kg/injection, schedule: Q01DX009 (ip), vehicle: Klucel (hydroxypropylcellulose) (HPC).
[7] abbreviates: dose: 400.0 mg/kg/injection, schedule: Q04DX003 (ip), vehicle: Klucel (hydroxypropylcellulose) (HPC).
The mark [8] stands for this setting: dose: 50.0 mg/kg/injection, schedule: Q01DX001 (ip), vehicle: carboxymethylcellulose (CMC).
Setting [9] is: dose: 100.0 mg/kg/injection, schedule: Q01DX001 (ip), vehicle: saline.
Where [10] appears, read: dose: 200.0 mg/kg/injection, schedule: Q01DX001 (ip), vehicle: saline.
Setting [11] is: dose: 400.0 mg/kg/injection, schedule: Q01DX001 (ip), vehicle: saline.

In the case of `N#CCC(N)=S`, the T/C is 120 % of control (dose: 25.0 mg/kg/injection, schedule: Q04DX002 (ip), vehicle: gum acacia) and 109 % of control (dose: 50.0 mg/kg/injection, schedule: Q04DX002 (ip), vehicle: gum acacia).

Regarding `CCCCOC(=O)NCCSC(=O)OCCCC`, the T/C is 101 % of control under setting [1]; 93 % of control (dose: 200.0 mg/kg/injection, schedule: Q04DX003 (ip), vehicle: saline with Tween-80); 95 % of control (dose: 400.0 mg/kg/injection, schedule: Q04DX003 (ip), vehicle: saline with Tween-80).

As to `COc1ccc(OC2CCCCC2OS(C)(=O)=O)cc1` (configuration not stated), the T/C reads like this: (dose: 100.0 mg/kg/injection, schedule: Q01DX001 (ip), vehicle: Klucel (hydroxypropylcellulose) (HPC)) 104 % of control; under setting [2], 96 % of control; under setting [3], 102 % of control; (dose: 200.0 mg/kg/injection, schedule: Q01DX001 (ip), vehicle: Klucel (hydroxypropylcellulose) (HPC)) 103 % of control; under setting [4], 104 % of control; under setting [5], 102 % of control. The T/C is, setting by setting: (dose: 400.0 mg/kg/injection, schedule: Q01DX001 (ip), vehicle: Klucel (hydroxypropylcellulose) (HPC)) 108 % of control; under setting [6], 106 % of control; under setting [7], 101 % of control.

Take `CC1(C)/C(=N\N=C2/C3CCC(C3)C2(C)C)C2CCC1C2`: the T/C by setting is: (dose: 12.5 mg/kg/injection, schedule: Q01DX009 (ip), vehicle: saline) 105 % of control; (dose: 25.0 mg/kg/injection, schedule: Q01DX009 (ip), vehicle: saline) 100 % of control; (dose: 50.0 mg/kg/injection, schedule: Q01DX009 (ip), vehicle: saline with Tween-80) 106 % of control; (dose: 50.0 mg/kg/injection, schedule: Q01DX009 (ip), vehicle: saline) 109 % of control; (dose: 100.0 mg/kg/injection, schedule: Q04DX003 (ip), vehicle: saline) 109 % of control; (dose: 200.0 mg/kg/injection, schedule: Q04DX003 (ip), vehicle: saline) 108 % of control.

For `CCCCCNC(=O)CCC`, the T/C runs as follows: under setting [2], 108 % of control; under setting [3], 96 % of control; under setting [4], 108 % of control; under setting [5], 107 % of control; under setting [6], 106 % of control; under setting [7], 95 % of control.

In the case of `Clc1ccccc1/C=C1\c2ccc(Br)cc2-c2cccc[n+]21`, the T/C (dose: 75.0 mg/kg/injection, schedule: Q01DX001 (ip), vehicle: other) was 87 % of control.

For the compound `O=C(C=P(c1ccccc1)(c1ccccc1)c1ccccc1)c1ccc(Br)cc1`, the T/C by setting is: under setting [8], 99 % of control; (dose: 100.0 mg/kg/injection, schedule: Q01DX001 (ip), vehicle: carboxymethylcellulose (CMC)) 99 % of control; (dose: 200.0 mg/kg/injection, schedule: Q01DX001 (ip), vehicle: carboxymethylcellulose (CMC)) 96 % of control; (dose: 400.0 mg/kg/injection, schedule: Q01DX001 (ip), vehicle: carboxymethylcellulose (CMC)) 99 % of control.

`CCOC(=O)C1CC(Cl)c2c(ccc3cc(OC)ccc23)N1` (configuration not stated): the T/C was 100 % of control (dose: 25.0 mg/kg/injection, schedule: Q01DX001 (ip), vehicle: carboxymethylcellulose (CMC)); 98 % of control and 92 % of control (dose: 25.0 mg/kg/injection, schedule: Q01DX009 (ip), vehicle: carboxymethylcellulose (CMC)); 93 % of control and 95 % of control (dose: 25.0 mg/kg/injection, schedule: Q04DX002 (ip), vehicle: carboxymethylcellulose (CMC)); 97 % of control (dose: 25.0 mg/kg/injection, schedule: Q04DX003 (ip), vehicle: carboxymethylcellulose (CMC)); 107 % of control under setting [8]; 100 % of control and 91 % of control (dose: 50.0 mg/kg/injection, schedule: Q01DX009 (ip), vehicle: carboxymethylcellulose (CMC)). In addition, the T/C runs as follows: (dose: 50.0 mg/kg/injection, schedule: Q04DX002 (ip), vehicle: carboxymethylcellulose (CMC)) 101 % of control and 103 % of control; (dose: 50.0 mg/kg/injection, schedule: Q04DX003 (ip), vehicle: carboxymethylcellulose (CMC)) 95 % of control; (dose: 100.0 mg/kg/injection, schedule: Q01DX009 (ip), vehicle: carboxymethylcellulose (CMC)) 93 % of control; (dose: 100.0 mg/kg/injection, schedule: Q04DX002 (ip), vehicle: carboxymethylcellulose (CMC)) 95 % of control and 108 % of control; (dose: 100.0 mg/kg/injection, schedule: Q04DX003 (ip), vehicle: carboxymethylcellulose (CMC)) 95 % of control.

With `Cc1cccc(CSc2nc(N)nc3ncn(C4CC(O)C(CO)O4)c23)n1` (configuration not stated), the T/C runs as follows: (dose: 100.0 mg/kg/injection, schedule: Q01DX005 (ip), vehicle: saline) 101 % of control; (dose: 200.0 mg/kg/injection, schedule: Q01DX005 (ip), vehicle: saline) 103 % of control.

For the compound `Nc1nc(N)nc(N)n1`, the T/C was 94 % of control (dose: 50.0 mg/kg/injection, schedule: Q04DX002 (ip), vehicle: Klucel (hydroxypropylcellulose) (HPC)); 92 % of control and 113 % of control under setting [2]; 94 % of control (dose: 100.0 mg/kg/injection, schedule: Q04DX002 (ip), vehicle: Klucel (hydroxypropylcellulose) (HPC)); 92 % of control and 99 % of control under setting [4]; 94 % of control and 105 % of control (dose: 200.0 mg/kg/injection, schedule: Q04DX002 (ip), vehicle: Klucel (hydroxypropylcellulose) (HPC)); 95 % of control and 99 % of control under setting [6]. In addition, the T/C is, setting by setting: (dose: 400.0 mg/kg/injection, schedule: Q04DX002 (ip), vehicle: Klucel (hydroxypropylcellulose) (HPC)) 102 % of control; (dose: 800.0 mg/kg/injection, schedule: Q01DX009 (ip), vehicle: Klucel (hydroxypropylcellulose) (HPC)) 96 % of control; (dose: 1000.0 mg/kg/injection, schedule: Q01DX009 (ip), vehicle: Klucel (hydroxypropylcellulose) (HPC)) 103 % of control.

Regarding `O=S(=O)(O)c1ccc(CCCCCCCl)cc1`, the T/C (dose: 100.0 mg/kg/injection, schedule: Q04DX002 (ip), vehicle: saline) was 93 % of control and the T/C (dose: 200.0 mg/kg/injection, schedule: Q04DX002 (ip), vehicle: saline) was 87 % of control.

As to `COc1ccc(/C=c2\[nH]c(=O)/c(=C/c3ccc(OC)c(OC)c3)[nH]c2=O)cc1OC`, the T/C was 92 % of control (dose: 25.0 mg/kg/injection, schedule: Q04DX003 (ip), vehicle: saline with Tween-80); 89 % of control (dose: 50.0 mg/kg/injection, schedule: Q04DX003 (ip), vehicle: saline with Tween-80); 86 % of control under setting [1].

In the case of `C[n+]1cccc(NC(=O)c2ccc(NC(=O)c3ccc(C(=O)Nc4ccc(NC(=N)N)cc4)cc3)cc2)c1`, the T/C by setting is: (dose: 0.3 mg/kg/injection, schedule: Q01DX009 (ip), vehicle: saline) 118 % of control; (dose: 0.6 mg/kg/injection, schedule: Q01DX009 (ip), vehicle: saline) 123 % of control; (dose: 1.3 mg/kg/injection, schedule: Q01DX009 (ip), vehicle: saline) 155 % of control; (dose: 2.0 mg/kg/injection, schedule: Q01DX009 (ip), vehicle: saline) 221 % of control; (dose: 3.0 mg/kg/injection, schedule: Q01DX009 (ip), vehicle: saline) 294 % of control; (dose: 5.0 mg/kg/injection, schedule: Q01DX001 (ip), vehicle: saline) 119 % of control and 124 % of control. Besides, the T/C is 193 % of control (dose: 5.0 mg/kg/injection, schedule: Q01DX009 (ip), vehicle: saline); 123 % of control (dose: 15.0 mg/kg/injection, schedule: Q01DX009 (ip), vehicle: saline); 178 % of control (dose: 20.0 mg/kg/injection, schedule: Q01DX001 (ip), vehicle: saline); 201 % of control and 249 % of control (dose: 40.0 mg/kg/injection, schedule: Q01DX001 (ip), vehicle: saline).

For the compound `c1ccc(C2CCCCO2)cc1` (configuration not stated), the T/C (dose: 100.0 mg/kg/injection, schedule: Q01DX009 (ip), vehicle: saline with Tween-80) is 94 % of control; the T/C (dose: 200.0 mg/kg/injection, schedule: Q01DX009 (ip), vehicle: saline with Tween-80) is 100 % of control; the T/C (dose: 400.0 mg/kg/injection, schedule: Q01DX009 (ip), vehicle: saline with Tween-80) was 88 % of control.

With `Cn1c(=O)cc(C=Nc2ccc(C(=O)O)cc2)c2ccccc21`, the T/C runs as follows: under setting [9], 100 % of control; under setting [10], 96 % of control; under setting [11], 100 % of control.

In the case of `CC(/C=C/c1ccccc1)=N\NC(=O)NN`, the T/C by setting is: under setting [9], 91 % of control; under setting [10], 89 % of control; under setting [11], 89 % of control.
